Test results as given in US10975063B2, “Compound, and production method thereof, and methods of treatment using the compound” (ABIVAX, priority 2009, dated 2021).

Experiments:
HIV-1 = test: Inhibition of HIV-1 production (p24 antigen) in infected peripheral blood mononuclear cells (PBMCs); format: cell-based, HIV-1 (AdaM) in PBMCs of healthy donors; details: for Inhibition of p24 production in HIV infected PBMCs from different donors: tested molecules at 10 μM, p24 after 3 and 6 days of infection, number of donors with inhibition out of donors tested
Procedure: Within this framework, the peripheral blood mononuclear cells (PBMCs) of healthy donors are isolated by centrifugation on a FICOLL gradient. The cells are then cultivated to a density of 2.5×10^6 cells/ml with RPMI medium supplemented with 1% inactivated human AB serum, then incubated at 37° C., 5% CO2 for an additional hour. The peripheral blood mononuclear cells are then recovered and cultivated for two days in RPMI medium supplemented with 10% fetal calf serum.
A standard experiment using 96 plates to test 30 molecules in triplicates including positive and negative controls, is performed as follows:
50 10^6 Ficoll purified PBMCs (10% DMSO 90% FCS) are washed with RPMI 10% FCS and resuspended in 25 ml of RPMI 10% FCS, glutamax containing 1000 U/ml of IL2 and 5 μg/ml PHA. The cells are then incubated for 3 days at 37° C. before to be washed with 50 ml PBS then with 50 ml RPMI 10% FCS. The cells are resuspended in 100 μl of RPMI 10% FCS containing 100 U/ml IL2 and seeded in 96 wells (1.5 10^5 cells/well). Viral infection is performed with 1 ng of AdaM/well. 100 μl of tested molecules at concentration of 10 μM are added to each well. Virus production is determined by p24 antigen immunosorbent assays after 3 and 6 days of infection (Kit Innogenetics). Typically PBMCs are prepared from several healthy donors (around 11 different donors). Dose response curves were then established with selected compounds to determine IC50.

[1] = tested on: LMNA aberrant splicing (MutLMNA-luc cell line); test: Luciferase assay for repression of LMNA aberrant splicing in stable 293 MutLMNA-luc cell line (293FLP LMNA LUC cells #8); format: cell-based; details: 48 hours, compared to control untreated MutLMNA-luc cell line, read-out: Increase of luciferase activity
From the text: Advantage has been taken of the luciferase system. The luciferase assay is an extremely sensitive and rapid assay. Linear results are seen over at least eight orders of magnitude of enzyme concentration. Moreover, the luciferase assay is well suited for high-throughput applications. To conduct a Mid-throughput screening (MTS) for compounds repressing LMNA aberrant splicing, we have constructed a plasmid in which exon 11, intron 11 and part of exon 12 of LMNA gene were fused with luciferase cDNA (FIG. 2). Both wild type (WtLMNA-luc)(SEQ ID NO: 1) and mutant (MutLMNA-luc)(SEQ ID NO: 2) substrate harbouring exon 11 mutation have been constructed. In these constructs we have generated a single initiation codon in exon 11 such as correct splicing will lead to luciferase expression, while aberrant splicing will skip the initiation codon and thereby prevent luciferase expression. After transfection in HeLa cells, Luciferase assays (FIG. 2B) and RT-PCR (FIG. 2C) indicate that WtLMNA-luc produces predominantly wild type splicing and large amount of luciferase activity, whereas MutLMNA-luc recapitulate the aberrant splicing profile with reduced luciferase expression (FIGS. 2 B and C, compare Wt and Mut). In order to use this system in MTS, we have generated a stable 293 cell lines containing a single integrated copy of luciferase reporter containing LMNA mutation (MutLMNA-luc cell line) using the flp system from INVITROGEN. This system allows us to perform a MTS for compounds able to enhance luciferase activity.
LMNA sequences (1278 bp of exon 11, intron 11 and 46 bp of […]) were PCR-amplified from either control or patient's cells genomic DNA with specific primer PCR fragments were purified with Concert Rapid PCR purification system (Invitrogen) and subcloned at the BamHI and EcoRI restriction sites of the pSppβm3 S1 plasmid containing the βGlobin cassette (Labourier et al., 1999—Recognition of exonic splicing enhancer sequences by the Drosophila splicing repressor RSF1. Nucleic Acids Res. 27, 2377-2386) to give the βGlo3S1LMNAwt and βGlo3S1LMNAmut constructs. The chimeric (3Glo-LMNA sequences were then inserted into the pcDNA3.1D/V5-His-TOPO vector (Invitrogen) to be used in transfection and in vitro splicing experiments. A single initiation codon ATG was kept in exon 11 of LMNA and LMNA sequences described above were fused at their 3′ end to Fyrefly luciferase cDNA (LMNAlucWT) in order that removal of intron 11 generates a transcript that encode a fusion protein harbouring luciferase activity, whereas usage of the cryptic splice site of mutated exon 11 (LMNAlucMut) will remove the initiation codon preventing luciferase expression. Both sequences were cloned in pcDNA3 Flp-In vector (Invitrogen).
A stable 293 cell line containing a single copy of LMNAlucMut minigene was obtained using the Flp-In system from (Invitrogen) according to manufacture procedure. Several clones were obtained and only one clone was used to screen the whole chemical library (293FLP LMNA LUC cells #8).
In a 96 Well Plate sterile, V-shape one put […] of drug compounds at 50 mM and then add 49.5 μl of 10% DMSO.
One pipets […] of drug at 500 μM and adds 200 μL of DMEM+Hygromycin B. At this stage the concentration of drug compound is 10 μM. One shares out 100 μl in a 96 Well Microplate sterile, flat bottom (further called luciferase plate) and 50 μl in other one (further called toxicity plate).
One washes 293FLP LMNA LUC cells once with D-PBS then adds 1 ml trypsin EDTA. Incubation at 37° C. for 2-3 minutes is proceeded. Then one adds 9 ml DMEM (with 10% FCS, P/S).
Cell concentration is brought at 10^5 cells per ml with DMEM+Hygromycin B to have 10^4 cells per 100 μl.
100 μl of suspension cells is added (at 10^4 cells per 100 μl) so final concentration of compounds is […].
Medium of the wells is gently removed then washed once by adding slowly 150 μl of D-PBS 1×. D-PBS is removed. 40 μl of PLB 1× is added and incubated at RT for 30 minutes. […]

Row | Compound | Inhibition of p24 production in HIV infected PBMCs from different donors (HIV-1) | fold induction at 5 µM [1] | IC50 (HIV-1; Human immunodeficiency virus 1, PBMC, p24 production in HIV infected PBMCs, dose response curves)
1 | Cc1cccc(Nc2cc(C)c3ccccc3n2)n1 [Compound 45, 4-methyl-N-(6-methylpyridin-2-yl)quinolin-2-amine] | 4 out of 4 donnors | 3.08 | –
2 | Cc1cc(OC(F)(F)F)ccc1Nc1ccc2ccccc2n1 [Compound 82, N-[2-methyl-4-(trifluoromethoxy)phenyl]quinolin-2-amine] | 4 out of 4 donnors | 3.41 | –
3 | Fc1cccc(Nc2ccc3ccccc3n2)c1 [Compound 86, N-(3-fluorophenyl)quinolin-2-amine] | 3 out of 4 donnors | 2.77 | –
4 | O=[N+]([O-])c1cccnc1Nc1cnc2ccccc2c1 [Compound 106, N-(3-nitropyridin-2-yl)quinolin-3-amine] | 6 out of 6 donnors | 2.77 | 0.5 nM
5 | Clc1ccc2nc(Nc3cnccn3)ccc2c1 [Compound 109, 6-chloro-N-(pyrazin-2-yl)quinolin-2-amine] | 8 out of 8 donnors | 2.79 | –
6 | Cc1ccnc(Nc2cnc3ccccc3n2)c1 [Compound 136, N-(4-methylpyridin-2-yl)quinoxalin-2-amine] | 6 out of 8 donnors | 5.2 | –
